Source: patent publication US20050014830A1 (priority 2003, published 2005)
Read-outs that look alike come from different tables or passages of the source.

Tests used:
[1] = test system: Serratia bacterium; parameters: species or system Serratia species
[2] = test system: enterovirus
[3] = test system: SARS virus; parameters: species or system SARS virus (coronavirus)

O=C(O)CCCCCCCO [8-hydroxyoctanoic acid]
surface roughness of the bacterium measured by AFM [1]: increased | AFM height of the enterovirus virion after treatment [2]: about 1,300 nm | conformation of the SARS virion (AFM picture) ([3]; FIG. 9B, a few minutes after treatment): disruption | conformation of the SARS virion (AFM picture) ([3]; FIG. 9C, a few more minutes into treatment): collapsed further more | conformation of the SARS virion (AFM picture) ([3]; FIG. 9D, final stage of treatment): completely killed
